Data: patent US20190365774A1, “COMBINATION THERAPY OF BACE-1 INHIBITOR AND ANTI-N3PGLU ABETA ANTIBODY” (Eli Lilly and Company, priority 2016, published 2019)
Like-named read-outs stand apart in the source and are kept apart here.

What was measured:
human BACE2 (1-460):Fc = target: T1, human BACE2 (1-460):Fc (Homo sapiens, UniProt Q9Y5Z0); test: BACE2 TMEM27 FRET assay; assay type: biochemical
T1 construct: made in house; host or cells: HEK293 (transient, secreted into conditioned media, Protein A purified)
T1 sequence (Q9Y5Z0 21-460): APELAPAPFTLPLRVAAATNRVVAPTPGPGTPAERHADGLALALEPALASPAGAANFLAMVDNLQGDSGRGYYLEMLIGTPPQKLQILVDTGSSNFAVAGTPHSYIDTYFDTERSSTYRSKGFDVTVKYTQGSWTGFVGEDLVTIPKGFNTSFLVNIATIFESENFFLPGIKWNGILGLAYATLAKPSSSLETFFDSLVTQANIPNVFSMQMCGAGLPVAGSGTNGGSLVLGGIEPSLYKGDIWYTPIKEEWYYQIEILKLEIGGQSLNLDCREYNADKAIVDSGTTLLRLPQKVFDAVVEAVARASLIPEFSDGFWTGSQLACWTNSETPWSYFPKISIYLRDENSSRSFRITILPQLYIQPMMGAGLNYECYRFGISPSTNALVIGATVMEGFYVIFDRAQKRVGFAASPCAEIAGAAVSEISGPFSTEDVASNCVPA
Experimental: (§1) To assess selectivity of BACE1 over BACE2, the test compound is evaluated in FRET-based enzymatic assays using specific substrates for BACE1 and BACE2 as described below. For in vitro enzymatic and cellular assays, the test compound is prepared in DMSO to make up a 10 mM stock solution. The stock solution is serially diluted in DMSO to obtain a ten-point dilution curve with final compound concentrations ranging from 10 μM to 0.05 nM in a 96-well round-bottom plate before conducting the in vitro enzymatic and whole cell assays.
Human BACE1 (accession number: AF190725) and human BACE2 (accession number: AF 204944) are cloned from total brain cDNA by RT-PCR. […]
Conditioned media of HEK293 cell transiently transfected with huBACE1:Fc or huBACE2:Fc cDNA are collected. […] The purity of final product is assessed by electrophoresis in 4-20% Tris-Glycine SDS-PAGE. […]
Transmembrane protein 27 (TMEM27) (Accession Number NM_020665), also known as Collectrin) is a recently described substrate for BACE2, but not BACE1 (Esterhazy, et al, Cell Metabolism, 14, 365-377 (2011)). […] The RFU of the mixture at time 0 is recorded at excitation wavelength 430 nm and emission wavelength 535 nm. […] The RFU at the end of incubation is recorded with the same excitation and emission settings used at time 0. […]

[1] = tested on: BACE1 activity in SH-SY5YAPP695Wt cells; test: SH-SY5YAPP695Wt whole cell assay (Abeta 1-40 / 1-42 ELISA); assay type: cell-based; conditions: Homo sapiens, Mean ± SEM, n = 4, 24 hours incubation
Experimental: as §1
The routine whole cell assay for the measurement of inhibition of BACE1 activity utilizes the human neuroblastoma cell line SH-SY5Y (ATCC Accession No. CRL2266) stably expressing a human APP695Wt cDNA. Cells are routinely used up to passage number 6 and then discarded.
SH-SY5YAPP695Wt cells are plated in 96 well tissue culture plates at 5.0×10^4 cells/well in 200 μL culture media (50% MEM/EBSS and Ham's F12, 1× each sodium pyruvate, non-essential amino acids and Na bicarbonate containing 10% FBS). The following day, media is removed from the cells, fresh media added then incubated at 37° C. for 24 hours in the presence/absence of test compound at the desired concentration range.
At the end of the incubation, conditioned media are analyzed for evidence of beta-secretase activity by analysis of Abeta peptides 1-40 and 1-42 by specific sandwich ELISAs. […]

Abeta 1-x = test: In vivo inhibition of beta-secretase, brain Abeta 1-x in PDAPP mice; conditions: young female PDAPP mice, three hours after dosing, vs vehicle
Source text: Several animal models, including mouse, guinea pig, dog, and monkey, may be used to screen for inhibition of beta-secretase activity in vivo following compound treatment. Animals used in this invention can be wild type, transgenic, or gene knockout animals. For example, the PDAPP mouse model, prepared as described in Games et al., Nature 373, 523-527 (1995), and other non-transgenic or gene knockout animals are useful to analyze in vivo inhibition of Abeta and sAPPbeta production in the presence of inhibitory compounds. Generally, 2 month old PDAPP mice, gene knockout mice or non-transgenic animals are administered compound formulated in vehicles, such as corn oil, beta-cyclodextran, phosphate buffers, PHARMASOLVE®, or other suitable vehicles via oral, subcutaneous, intra-venous, feeding, or other route of administration. One to twenty-four hours following the administration of compound, animals are sacrificed, and brains are removed for analysis of Abeta 1-x. “Abeta 1-x” as used herein refers to the sum of Abeta species that begin with residue 1 and end with a C-terminus greater than residue 28. This detects the majority of Abeta species and is often called “total Abeta”. Total Abeta peptides (Abeta 1-x) levels are measured by a sandwich ELISA, using monoclonal 266 as a capture antibody and biotinylated 3D6 as reporting antibody. (See May, et al., Journal of Neuroscience, 31, 16507-16516 (2011)).
For acute studies, compound or appropriate vehicle is administered and animals are sacrificed at about 3 hours after dosing. Brain tissue, is obtained from selected animals and analyzed for the presence of Abeta 1-x. After chronic dosing brain tissues of older APP transgenic animals may also be analyzed for the amount of beta-amyloid plaques following compound treatment.
For example, a 3, 10, and 30 mg/kg oral dose of Example 1, to young female PDAPP mice reduced Abeta 1-x peptide levels in brain hippocampus by 23% (non-significant), 43% (p<0.05), and 58% (p<0.01), respectively.

CC(F)(F)[C@H]1OC[C@]2(c3cc(NC(=O)c4cnc(-n5cncn5)cn4)ccc3F)N=C(N)SC[C@H]12 [Example 1, N-[3-[(4aS,5S,7aS)-2-Amino-5-(1,1-difluoroethyl)-4,4a,5,7-tetrahydrofuro[3,4-d][1,3]thiazin-7a-yl]-4-fluoro-phenyl]-5-(1,2,4-triazol-1-yl)pyrazine-2-carboxamide]
BACE2 IC50 / BACE1 IC50 ratio (fold selectivity for BACE1 over BACE2) (human BACE2 (1-460):Fc): about 400 fold | IC50 ([1]; read-out: SH-SY5YAPP695Wt A-beta (1-40) ELISA IC50): 385 ± 163 pM | IC50 ([1]; read-out: SH-SY5YAPP695Wt A-beta (1-42) ELISA IC50): 381 ± 266 pM | reduction of Abeta 1-x peptide levels in brain hippocampus (Abeta 1-x; 3 mg/kg oral, non-significant): 23% | reduction of Abeta 1-x levels in brain cortical tissue (Abeta 1-x; 3 mg/kg oral, p<0.01): 43% | reduction of Abeta 1-x levels in brain cortical tissue (Abeta 1-x; 10 mg/kg oral, p<0.01): 59% | reduction of Abeta 1-x peptide levels in brain hippocampus (Abeta 1-x; 10 mg/kg oral, p<0.05): 43% | reduction of Abeta 1-x levels in brain cortical tissue (Abeta 1-x; 30 mg/kg oral, p<0.01): 73% | reduction of Abeta 1-x peptide levels in brain hippocampus (Abeta 1-x; 30 mg/kg oral, p<0.01): 58%
